Measurements: US8153809B2, “Dihydropyridone ureas as P2X7 modulators” (Roche Palo Alto LLC, priority 2008, dated 2012)

Each compound was assayed against T1, P2X7 (UniProt Q99572) (assay: pIC50 values for P2X7 (Table 1)).
T1 sequence (Q99572 1-595): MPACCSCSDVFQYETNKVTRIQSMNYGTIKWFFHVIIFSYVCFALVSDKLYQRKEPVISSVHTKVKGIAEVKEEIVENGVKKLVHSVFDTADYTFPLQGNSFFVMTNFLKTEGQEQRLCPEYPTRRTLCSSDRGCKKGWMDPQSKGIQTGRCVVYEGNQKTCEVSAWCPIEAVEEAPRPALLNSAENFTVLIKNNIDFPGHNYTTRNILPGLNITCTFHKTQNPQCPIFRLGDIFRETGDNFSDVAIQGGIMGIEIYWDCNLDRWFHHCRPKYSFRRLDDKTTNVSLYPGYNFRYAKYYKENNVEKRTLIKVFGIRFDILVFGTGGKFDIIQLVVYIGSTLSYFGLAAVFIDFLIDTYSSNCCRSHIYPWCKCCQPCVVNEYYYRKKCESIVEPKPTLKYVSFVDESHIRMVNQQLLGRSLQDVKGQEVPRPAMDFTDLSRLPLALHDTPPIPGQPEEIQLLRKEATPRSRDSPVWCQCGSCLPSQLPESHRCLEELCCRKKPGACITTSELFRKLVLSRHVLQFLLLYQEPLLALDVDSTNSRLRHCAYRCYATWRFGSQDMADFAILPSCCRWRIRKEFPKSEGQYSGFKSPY
Assay type: cell-based
Procedure: Intracellular Calcium Flux (FLIPR) Assay
Compound and Reagent Preparation
Stock solutions of compounds were prepared from powders as a 10 mM DMSO stock solution. These solutions were stored at RT during the two week period of these experiments to prevent freeze-thaw of the DMSO stocks. The DMSO stocks were added to the appropriate assay buffer at a concentration of 10 μM, and then diluted serially to the final concentrations that were tested. […] The aqueous solutions of compounds as well as ATP (Sigma A7699) and BzATP (Sigma B6396) were prepared fresh for each day of experiment.
1321N1 cells stably expressing the full length human P2X7 gene (1321N1-hP2X7) and HEK293 cells stably expressing the full length rat P2X7 gene (HEK293-rP2X7) were obtained from the Roche Cell Culture Facility. 1321N1-hP2X7 cells were grown in Dulbecco's Modified Eagle's Medium (DMEM) high glucose supplemented with 10% FBS and 250 μg/mL G418. HEK293-rP2X7 cells were grown in DMEM/F-12 supplemented with 10% FBS, 1 mM CaCl2, 2 mM MgCl2, 2 mM L-Glutamine and 500 μg/ml G418. Cells were split such that they never became >70% confluent.
Intracellular Calcium Flux (FLIPR)
On the day prior to the experiment, 1321N1-hP2X7 or HEK293-rP2X7 cells were released into suspension with calcium-free PBS+Versene and washed by centrifugation with calcium-free PBS to remove the Versene.
On the day of the experiment, plates were washed with FLIPR buffer (calcium- and magnesium-free Hank's Balanced Salt Solution (HBSS) supplemented with 10 mM Hepes, 2.5 mM probenecid and 2 mM calcium chloride) using a BIO-TEK 96 channel plate washer and incubated with […] fluo-3 dye at 37° C. for one hr. The dye was then removed by plate washing and the cells were allowed to equilibrate for 20 min at room temperature with antagonist or vehicle (FLIPR buffer). Agonist (100 μM BzATP final concentration for hP2X7; 5 μM BzATP final concentration or rP2X7) was added online with the FLIPR and fluorescence measurements made at 1 sec intervals for 60 sec followed by 3 sec intervals for a further 4 min (5 min total). A final addition of 5 μM ionomycin was made and the maximal BzATP-evoked fluorescence normalized to the maximal ionomycin-evoked fluorescence.

Row | Structure (SMILES) | pIC50
1 | COc1cc(NC(=O)N2C=CC(=O)C[C@H]2c2cc(F)cc(F)c2)c(Br)cc1C (stereo in doubt) [Compound 47, 2-(3,5-Difluoro-phenyl)-4-oxo-3,4-dihydro-2H-pyridine-1-carboxylic acid (2-bromo-5-methoxy-4-methyl-phenyl)-amide] | 6.987
2 | COc1cc(Br)c(NC(=O)N2C=CC(=O)CC2c2ccccc2)cc1OC (stereo not drawn) [Compound 1, 4-Oxo-2-phenyl-3,4-dihydro-2H-pyridine-1-carboxylic acid (2-bromo-4,5-dimethoxy-phenyl)-amide] | 7.408
3 | COc1cc(NC(=O)N2C=CC(=O)CC2c2ccccc2)c(Br)cc1Cl (stereo not drawn) [Compound 2, 4-Oxo-2-phenyl-3,4-dihydro-2H-pyridine-1-carboxylic acid (2-bromo-4-chloro-5-methoxy-phenyl)-amide] | 6.425
4 | COc1cc(Br)c(NC(=O)N2C=CC(=O)C[C@H]2c2ccc(F)cc2)cc1OC [Compound 3, (S)-2-(4-Fluoro-phenyl)-4-oxo-3,4-dihydro-2H-pyridine-1-carboxylic acid (2-bromo-4,5-dimethoxy-phenyl)-amide] | 8.055
5 | COc1cc(NC(=O)N2C=CC(=O)C[C@H]2c2ccccc2)c(Br)cc1Cl [Compound 4, (S)-4-Oxo-2-phenyl-3,4-dihydro-2H-pyridine-1-carboxylic acid (2-bromo-4-chloro-5-methoxy-phenyl)-amide] | 7.476
6 | COc1cc(NC(=O)N2C=CC(=O)C[C@H]2c2ccc(F)cc2)c(Cl)cc1Cl [Compound 7, (S)-2-(4-Fluoro-phenyl)-4-oxo-3,4-dihydro-2H-pyridine-1-carboxylic acid (2,4-dichloro-5-methoxy-phenyl)-amide] | 6.73
7 | COc1cc(NC(=O)N2C=CC(=O)C[C@H]2c2ccc(F)cc2)c(Br)cc1C(F)(F)F [Compound 8, (S)-2-(4-Fluoro-phenyl)-4-oxo-3,4-dihydro-2H-pyridine-1-carboxylic acid (2-bromo-5-methoxy-4-trifluoromethyl-phenyl)-amide] | 6.09
8 | COc1cc(NC(=O)N2C=CC(=O)C[C@H]2c2ccc(F)cc2)c(Br)cc1C [Compound 12, (S)-2-(4-Fluoro-phenyl)-4-oxo-3,4-dihydro-2H-pyridine-1-carboxylic acid (2-bromo-5-methoxy-4-methyl-phenyl)-amide] | 7.873
9 | COc1cc(NC(=O)N2C=CC(=O)C[C@H]2c2ccc(F)cc2)c(C(C)C)cc1OC [Compound 13, (S)-2-(4-Fluoro-phenyl)-4-oxo-3,4-dihydro-2H-pyridine-1-carboxylic acid (2-isopropyl-4,5-dimethoxy-phenyl)-amide] | 6.66
10 | COc1cc(Br)c(NC(=O)N2C=CC(=O)C[C@H]2c2cccc(F)c2)cc1OC [Compound 19, (S)-2-(3-Fluoro-phenyl)-4-oxo-3,4-diohydro-2H-pyridine-1-carboxylic acid (2-bromo-4,5-dimethoxy-phenyl)-amide] | 8.56
11 | COc1cc(NC(=O)N2C=CC(=O)CC2c2cccnc2)c(Br)cc1C (stereo not drawn) [Compound 20, 4-Oxo-3,4-dihydro-2H-[2,3′]bipyridinyl-1-carboxylic acid (2-bromo-5-methoxy-4-methyl-phenyl)-amide] | 5.995
12 | COc1ccc(Br)c(NC(=O)N2C=CC(=O)C[C@H]2c2ccc(F)cc2)n1 [Compound 21, (S)-2-(4-Fluoro-phenyl)-4-oxo-3,4-dihydro-2H-pyridine-1-carboxylic acid (3-bromo-6-methoxy-pyridin-2-yl)-amide] | 6.32
13 | COC(=O)c1cc(Br)c(NC(=O)N2C=CC(=O)CC2c2ccc(F)cc2)cc1OC (stereo not drawn) [Compound 22, 5-Bromo-4-{[2-(4-fluoro-phenyl)-4-oxo-3,4-dihydro-2H-pyridine-1-carbonyl]-amino}-2-methoxy-benzoic acid methyl ester] | 7.15
14 | Cc1ccc(S(=O)(=O)n2nc(C)c3cc(Br)c(NC(=O)N4C=CC(=O)C[C@H]4c4ccc(F)cc4)cc32)cc1 [Compound 23, (S)-2-(4-Fluoro-phenyl)-4-oxo-3,4-dihydro-2H-pyridine-1-carboxylic acid [5-bromo-3-methyl-1-(toluene-4-sulfonyl)-1H-indazol-6-yl]-amide] | 5.245

Other lines, results leading:

Row | pIC50 | Structure (SMILES)
15 | 7.4325 | COc1cc(NC(=O)N2C=CC(=O)C[C@H]2c2ccc(F)cc2)c(Br)cc1Cl [Compound 5, (S)-2-(4-Fluoro-phenyl)-4-oxo-3,4-dihydro-2H-pyridine-1-carboxylic acid (2-bromo-4-chloro-5-methoxy-phenyl)-amide]
16 | 7.5 | COc1cc(NC(=O)N2C=CC(=O)C[C@H]2c2ccc(F)cc2)c(Br)cc1F [Compound 6, (S)-2-(4-Fluoro-phenyl)-4-oxo-3,4-dihydro-2H-pyridine-1-carboxylic acid (2-bromo-4-fluoro-5-methoxy-phenyl)-amide]
17 | 6.11 | O=C1C=CN(C(=O)Nc2cc(Cl)c(Cl)cc2Br)[C@H](c2ccc(F)cc2)C1 [Compound 9, (S)-2-(4-Fluoro-phenyl)-4-oxo-3,4-dihydro-2H-pyridine-1-carboxylic acid (2-bromo-4,5-dichloro-phenyl)-amide]
18 | 6.5175 | O=C1C=CN(C(=O)Nc2cc(I)c(Cl)cc2Br)[C@H](c2ccc(F)cc2)C1 [Compound 10, (S)-2-(4-Fluoro-phenyl)-4-oxo-3,4-dihydro-2H-pyridine-1-carboxylic acid (2-bromo-4-chloro-5-iodo-phenyl)-amide]
19 | 6.015 | O=C1C=CN(C(=O)Nc2cc(C(F)(F)F)c(Cl)cc2Br)[C@H](c2ccc(F)cc2)C1 [Compound 11, (S)-2-(4-Fluoro-phenyl)-4-oxo-3,4-dihydro-2H-pyridine-1-carboxylic acid (2-bromo-4-chloro-5-trifluoromethyl-phenyl)-amide]
20 | 6.726 | CSc1cc(NC(=O)N2C=CC(=O)C[C@H]2c2ccc(F)cc2)c(Br)cc1Cl [Compound 14, (S)-2-(4-Fluoro-phenyl)-4-oxo-3,4-dihydro-2H-pyridine-1-carboxylic acid (2-bromo-4-chloro-5-methylsulfanyl-phenyl)-amide]
21 | 5.94 | CS(=O)(=O)c1cc(NC(=O)N2C=CC(=O)C[C@H]2c2ccc(F)cc2)c(Br)cc1Cl [Compound 15, (S)-2-(4-Fluoro-phenyl)-4-oxo-3,4-dihydro-2H-pyridine-1-carboxylic acid (2-bromo-4-chloro-5-methanesulfonyl-phenyl)-amide]
22 | 6.623 | C[S@@+]([O-])c1cc(NC(=O)N2C=CC(=O)C[C@H]2c2ccc(F)cc2)c(Br)cc1Cl [Compound 16, (S)-2-(4-Fluoro-phenyl)-4-oxo-3,4-dihydro-2H-pyridine-1-carboxylic acid [2-bromo-4-chloro-5-((R)-methanesulfinyl)-phenyl]-amide]
23 | 5.86 | C[S@+]([O-])c1cc(NC(=O)N2C=CC(=O)C[C@H]2c2ccc(F)cc2)c(Br)cc1Cl [Compound 17, (S)-2-(4-Fluoro-phenyl)-4-oxo-3,4-dihydro-2H-pyridine-1-carboxylic acid [2-bromo-4-chloro-5-((S)-methanesulfinyl)-phenyl]-amide]
24 | 6.286 | O=C1C=CN(C(=O)Nc2cc(F)c(Cl)cc2Br)[C@H](c2ccc(F)cc2)C1 [Compound 18, (S)-2-(4-Fluoro-phenyl)-4-oxo-3,4-dihydro-2H-pyridine-1-carboxylic acid (2-bromo-4-chloro-5-fluoro-phenyl)-amide]
